From patent CN109134447A, “一种富马酸卢帕替芬的杂质b及其制备方法和检测方法” (FUJIAN MINDONG REJUVENATION PHARMACEUTICAL Co Ltd, priority 2018, dated 2019)

Assay: Stability test of the reference solution of the compound of formula I (HPLC peak area)
Assay type: physicochemical
Conditions: reference solution in 50% aqueous methanol (25 mg in 25 ml); injected at 0, 2, 4, 8, 12, 24 h after preparation, 20 μl each; within 24 hours

stability (peak area by HPLC): 稳定
SMILES: Cc1cncc(C[N+]2(C)CCC(=C3c4ccccc4CC(=O)c4sccc43)CC2)c1.[Br-] (stereo not shown) [式Ⅰ所示化合物]
